We go through 13 compounds from ChEMBL document CHEMBL1125127 (J Med Chem, 1990).

The target of one test is T1, Beta-2 adrenergic receptor (Canis lupus familiaris, UniProt P54833).
T1 sequence (P54833 whole entry): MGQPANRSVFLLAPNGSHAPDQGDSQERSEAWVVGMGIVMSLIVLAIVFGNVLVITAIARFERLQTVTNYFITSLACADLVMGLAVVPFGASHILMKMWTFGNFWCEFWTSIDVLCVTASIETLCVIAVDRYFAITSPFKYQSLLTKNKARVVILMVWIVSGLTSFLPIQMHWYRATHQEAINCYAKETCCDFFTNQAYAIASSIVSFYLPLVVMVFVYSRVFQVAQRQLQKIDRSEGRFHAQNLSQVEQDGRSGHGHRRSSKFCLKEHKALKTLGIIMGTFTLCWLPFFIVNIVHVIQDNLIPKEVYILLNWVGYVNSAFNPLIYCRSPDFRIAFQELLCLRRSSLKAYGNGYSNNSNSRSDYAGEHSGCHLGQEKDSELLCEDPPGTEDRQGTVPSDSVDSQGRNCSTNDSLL
Description: Tested for Beta-2 adrenergic receptor selectivity in canine lung tissue in anesthetized dogs
Compound `Cc1cccc(OCC(O)CNCc2ccc(NS(C)(=O)=O)cc2)c1` (stereo unspecified) had an IC50 of 4.4 µM.

System in the next test: not listed separately
The test can be described thus: Ratio of number of active animals to number of treated animals; No of animals tested=2. The format is functional.
In the case of `CS(=O)(=O)Nc1ccc(C(=O)NCCNCC(O)COc2ccccc2)cc1` (stereo unspecified), the Ratio amounted to 0.

Consider `COc1ccc(OCC(O)CNCCNC(=O)c2ccc(NS(C)(=O)=O)cc2)cc1` (stereo unspecified), for which the Ratio came out at 0.

Take `CS(=O)(=O)Nc1ccc(C(=O)NCCNCC(O)COc2cccc3ccccc23)cc1` (stereo unspecified): the Ratio worked out at 0.

The subject of another test is Canis familiaris. The test can be described thus: Concentration at which maximum change in […] was observed from control value in anesthetized dogs; The maximum observed change APD95 from control value and concentration at 30 uM when this occurred. The class given is functional, Canis lupus familiaris.
For `CS(=O)(=O)Nc1ccc(C(=O)NCCNCC(O)COc2ccccc2)cc1` (stereo unspecified), the Max delta is on record as 26%.

In turn, `CS(=O)(=O)Nc1ccc(OC[C@H](O)CNCCOc2ccc(-n3ccnc3)cc2)cc1` registered a Max delta of 73%.

For `CS(=O)(=O)Nc1ccc(OCC(O)CNCc2ccc(-n3ccnc3)cc2)cc1` (stereo unspecified), the Max delta was found to be 67%.

Compound `CS(=O)(=O)Nc1ccc(C(=O)NCCNCC(O)COc2ccccc2C#N)cc1` (stereo unspecified) yielded a Max delta of 31%.

Another test has as its target T1, Beta-2 adrenergic receptor. As to the kind of experiment: Beta2-receptor selectivity in canine lung tissue in anesthetized dogs. The format is functional.
As for `COCCc1ccc(OCC(O)CNCCOc2ccc(-n3ccnc3)cc2)cc1` (stereo unspecified), the 50% inhibitory concentration (IC50) was 4.5 µM.

A further test deals with Canis familiaris. As to the kind of experiment: Maximum change in […] from control value in anesthetized dogs; 10 uM. The format is functional, Canis lupus familiaris.
On to `COc1ccc(OCC(O)CNCCNC(=O)c2ccc(NS(C)(=O)=O)cc2)cc1` (stereo unspecified), for which the Max delta is 86%.

Compound `COCCc1ccc(OCC(O)CN2CCN(C(=O)c3ccc(NS(C)(=O)=O)cc3)CC2)cc1` (stereo unspecified) had a Max delta of 56%.

The compound `CS(=O)(=O)Nc1ccc(C(=O)N2CCN(CC(O)COc3ccccc3)CC2)cc1` (stereo unspecified) displayed a Max delta of 88%.

With `CS(=O)(=O)Nc1ccc(C(=O)NCCNCC(O)COc2cccc3ccccc23)cc1` (stereo unspecified), the Max delta is given as 48%.

`Cc1cccc(OCC(O)CNCc2ccc(NS(C)(=O)=O)cc2)c1` (stereo unspecified) came in with a Max delta of 44%.

Compound `COCCc1ccc(OCC(O)CNCCNC(=O)c2ccc(-n3ccnc3)cc2)cc1` (stereo unspecified) had a Max delta of 70%.

Another test has as its target Beta-1 adrenergic receptor (Canis familiaris).
`CS(=O)(=O)Nc1ccc(OCC(O)CNCc2ccc(-n3ccnc3)cc2)cc1` (stereo unspecified) had an IC50 of 33.1 µM.

For the compound `Cc1cccc(OCC(O)CNCc2ccc(NS(C)(=O)=O)cc2)c1` (stereo unspecified), inhibition was half-maximal at 2.4 µM (IC50).

Another test addresses Beta adrenergic receptor (Canis familiaris).
Regarding `CS(=O)(=O)Nc1ccc(C(=O)NCCNCC(O)COc2ccccc2)cc1` (stereo unspecified), the IC50 was determined as 3.9 µM.

Compound `COc1ccc(OCC(O)CNCCNC(=O)c2ccc(NS(C)(=O)=O)cc2)cc1` (stereo unspecified) returned an IC50 of 43.8 µM.

For the compound `CC(=O)Nc1ccc(OCC(O)CN2CCN(c3ccc(NS(C)(=O)=O)cc3)CC2)cc1` (stereo unspecified), the IC50 came out at 293 µM.

`COCCc1ccc(OCC(O)CN2CCN(C(=O)c3ccc(NS(C)(=O)=O)cc3)CC2)cc1` (stereo unspecified) showed an IC50 of 360 µM.

With `CS(=O)(=O)Nc1ccc(C(=O)NCCNCC(O)COc2ccccc2C#N)cc1` (stereo unspecified), the IC50 was 2.9 µM.

With `CS(=O)(=O)Nc1ccc(C(=O)N2CCN(CC(O)COc3ccccc3)CC2)cc1` (stereo unspecified), the half-inhibitory concentration (IC50) came out at 12.2 µM.

As for `CS(=O)(=O)Nc1ccc(C(=O)NCCNCC(O)COc2cccc3ccccc23)cc1` (stereo unspecified), the IC50 amounted to 0.15 µM.

`Cc1cccc(OCC(O)CNCc2ccc(NS(C)(=O)=O)cc2)c1` (stereo unspecified): the IC50 was 0.99 µM.

`COCCc1ccc(OCC(O)CNCCNC(=O)c2ccc(-n3ccnc3)cc2)cc1` (stereo unspecified) yielded an IC50 of 12.4 µM.

A further test relates to Canis familiaris. As to the kind of experiment: Concentration that causes a 20% increase in APD95 (action potential duration at 95% repolarization) from control value in anesthetized dogs. The format is functional, Canis lupus familiaris.
Take `CCN(CC)CCNC(=O)c1ccc(NS(C)(=O)=O)cc1` [SEMATILIDE]: the C20 worked out at 4.4 µM.

Regarding `CS(=O)(=O)Nc1ccc(C(=O)NCCNCC(O)COc2ccccc2)cc1` (stereo unspecified), the C20 amounted to 7.1 µM.

As to `COCCc1ccc(OCC(O)CNCCOc2ccc(-n3ccnc3)cc2)cc1` (stereo unspecified), the “C20 APD95” value is 14.8 µM.

Turning to `COc1ccc(OCC(O)CNCCNC(=O)c2ccc(NS(C)(=O)=O)cc2)cc1` (stereo unspecified), the C20 is 0.6 µM.

With `CC(=O)Nc1ccc(OCC(O)CN2CCN(c3ccc(NS(C)(=O)=O)cc3)CC2)cc1` (stereo unspecified), the C20 came to 42 µM.

`COCCc1ccc(OCC(O)CN2CCN(C(=O)c3ccc(NS(C)(=O)=O)cc3)CC2)cc1` (stereo unspecified) registered a C20 of 7.7 µM.

Compound `CS(=O)(=O)Nc1ccc(OCC(O)CNCc2ccc(-n3ccnc3)cc2)cc1` (stereo unspecified) had a C20 of 1.8 µM.

As for `CS(=O)(=O)Nc1ccc(C(=O)NCCNCC(O)COc2ccccc2C#N)cc1` (stereo unspecified), the C20 was determined as 23.7 µM.

Take `CS(=O)(=O)Nc1ccc(C(=O)N2CCN(CC(O)COc3ccccc3)CC2)cc1` (stereo unspecified): the C20 was less than 1 µM.

`CS(=O)(=O)Nc1ccc(C(=O)NCCNCC(O)COc2cccc3ccccc23)cc1` (stereo unspecified): the C20 was 1.1 µM.

Consider `Cc1cccc(OCC(O)CNCc2ccc(NS(C)(=O)=O)cc2)c1` (stereo unspecified), for which the C20 was less than 1 µM.

For `COCCc1ccc(OCC(O)CNCCNC(=O)c2ccc(-n3ccnc3)cc2)cc1` (stereo unspecified), the C20 was less than 1.4 µM.

In the next test the test system is Canis familiaris. As to the kind of experiment: Concentration at which maximum change in […] was observed from control value in anesthetized dogs; The maximum observed change APD95 from control value and concentration at 100 uM when this occurred. The class given is functional, Canis lupus familiaris.
`CCN(CC)CCNC(=O)c1ccc(NS(C)(=O)=O)cc1` [SEMATILIDE] had a Max delta of 65%.

`COCCc1ccc(OCC(O)CNCCOc2ccc(-n3ccnc3)cc2)cc1` (stereo unspecified): the Max delta was 89%.

Regarding `CC(=O)Nc1ccc(OCC(O)CN2CCN(c3ccc(NS(C)(=O)=O)cc3)CC2)cc1` (stereo unspecified), the Max delta came out at 39%.
